The text below walks through data of patent US20250368651A1 (priority 2022, published 2025).

The target of experiment [1] is RNA Seq13 UGAAGAAAGGU
The experiment in a line: FP binding assay, RNA Seq13. The following applies: Seq 13 UGAAGAAAGGU; 0.5 μM SMN-C2. Here is the method:
(§1) All synthetic DNA and RNA oligomers were purchased from Integrated DNA Technologies and reconstituted in nuclease-free water (Invitrogen #AM9932) at 1 mM. The concentration of the oligonucleotides at ˜0.1 mM was calibrated with the A260 value measured by a NanoDrop ND-1000 (Thermo, Waltham, MA, USA) and the predicted extinction coefficient (http://www.oligoevaluator.com) using Lamber-Beer's Law. The risdiplam analogues (1 mM in DMSO) were diluted in 2× assay buffer (40 mM HEPES, 200 mM NaCl for RNA; 40 mM HEPES, 200 mM NaCl, 1 mM MgCl2 for DNA) to make a 1 μM 2× working solution.
(§2) A 1:2 dilution series (8 points) of each oligonucleotide was prepared in 20-30 μL water to desired concentrations (i.e., 1-128 μM). […] For fluorescence polarization measurement, 20 μL of the above 1× working solution was transferred into a 384-well, black, F-bottom microplates (Greiner Bio-One) in duplicates or triplicates. The plate was equilibrated at room temperature for 5 min before being read using a microplate reader (SYNERGY H1, BioTek; Excitation/Emission=360/460 nm) at 25° C. […] The mixture was then transferred into a microplate (20 μL each well) in duplicates for fluorescence polarization readout. The experimental data were analyzed using Prism 8 software (Graphpad Software, San Diego, CA, USA).

For experiment [2], the target named is RNA Seq18: 1:1 annealed U1 snRNA binding sequence 5′-AUACΨΨACCU and 5′ splice site 5′-GGAGGUAAGUCU
The experiment in a line: FP binding assay, dsRNA Seq18 (binding site 1 sequence). The note with it: Seq 18, binding site 1 sequence (dsRNA); 0.5 μM SMN-C2. As for the experimental part:
as §1, §2

Experiment [3] addresses DNA Seq6 (UGAAGGAAGGU as deoxyribonucleotides). The experiment in a line: FP binding assay, DNA Seq6. As for the experimental part: as §1
(§3) A 1:2 dilution series (8 points) of each oligonucleotide was prepared in 20-30 μL water to desired concentrations (i.e., 1-128 μM). 20-30 μL 2× working solution containing the 2× assay buffer and the small-molecule ligand was added to each oligonucleotide sample in 1:1 (v/v) and mixed by pipetting for 4 times. For fluorescence polarization measurement, 20 μL of the above 1× working solution was transferred into a 384-well, black, F-bottom microplates (Greiner Bio-One) in duplicates or triplicates. The plate was equilibrated at room temperature for 5 min before being read using a microplate reader (SYNERGY H1, BioTek; Excitation/Emission=360/460 nm) at 25° C. For compound SMN-C5, a competitive binding assay was employed to measure an apparent Kd. SMN-C5 was 1:2 serial diluted for 10 concentration points starting at 750 μM in DMSO. A mixture of SMN-C2 (0.5 μM) and DNA Seq6 (25 μM) in 1× assay buffer was prepared and incubated at room temperature for 10 minutes. 3 μL of SMN-C5 solution at each concentration was added to a 42 μL SMN-C2/DNA Seq6 mixture and incubated at room temperature for 10 minutes. The mixture was then transferred into a microplate (20 μL each well) in duplicates for fluorescence polarization readout. The experimental data were analyzed using Prism 8 software (Graphpad Software, San Diego, CA, USA).

The target of experiment [4] is DNA Seq12 TGAAAGAAGGT
The experiment in a line: FP binding assay, DNA Seq12. The note with it: Seq 12 TGAAAGAAGGT; 0.5 μM SMN-C2. Here is the method:
as §1, §2

Experiment [5] has as its target DNA S14 […]. As to the kind of experiment: FP binding assay, 18-nt DNA S14. Here is the method:
as §1, §2

Experiment [6] concerns the target DNA S16 […]. As to the kind of experiment: FP binding assay, 18-nt DNA S16. As for the experimental part:
as §1, §2

For experiment [7], the target named is DNA S11 […]. As to the kind of experiment: FP binding assay, 18-nt DNA S11. As for the experimental part: as §1, §2
Experiment [8] concerns the target DNA Seq6. As to the kind of experiment: Isothermal titration calorimetry (ITC), DNA Seq6. The format is binding. The note with it: SMN-C2 250 μM into DNA Seq6 25 μM; MES buffer, 5% DMSO, 100 mM NaCl. Here is the method:
Excess amount of SMN-C2 was eluted at retention volume ˜21 mL. The figures are the representation of three independent experiments.
Isothermal calorimetric titrations were carried out on a Malvern Analytical MicroCal PEAQ-ITC at 25° C. The DNA (see above for the calibration procedure) and the SMN-C2 water solutions containing the desired amount of the materials were freeze-dried overnight (Labconco FreeZone 4.5 Liter Benchtop Freeze Dry System) and then re-suspended in appropriate volume of buffer containing 5% DMSO, 100 mM NaCl and 30 mM MES buffer at pH 6.0 (e.g., 350 μL for DNA Seq6, 80 μL for SMN-C2). […] The analysis was performed using the instrument's MicroCal PEAQ-ITC Analysis Software (Malvern Analytical). The ITC data was fit using the One Set of Sites mode to calculate the dissociate constant (Kd), binding stoichiometry, and the changes in enthalpy and Gibbs free energy. In differential power (DP) trace, the baseline was subtracted for better visualization, which has no impact on calculations.

In experiment [9] the target is RNA Seq6 UGAAGGAAGGU
The experiment in a line: Fluorescence polarization (FP) binding assay, RNA Seq6. As for the experimental part: as §1, §3

Experiment [10] addresses DNA Seq9 TTAAGGAAGTT
The experiment in a line: FP binding assay, DNA Seq9. The note with it: Seq 9 TTAAGGAAGTT; 0.5 μM SMN-C2. As for the experimental part: as §1, §2

Some results are limits rather than exact numbers.

As to `CCN1CCN(c2ccc3cc(-c4cn5cc(C)nc(C)c5n4)c(=O)oc3c2)C[C@@H]1C` [SMN-C2, (S)-3-(6,8-dimethylimidazo[1,2-a]pyrazin-2-yl)-7-(4-ethyl-3-methylpiperazin-1-yl)-2H-chromen-2-one], the Kd was more than 100 µM in [1]; 60 ± 36 µM in experiment [2]; 3.1 ± 0.7 µM in experiment [3] (Seq 6, 0.5 μM SMN-C2, range = 95% CI, read-out: DNA Kd); 17.6 ± 3.4 µM in [4]; 19.5 ± 2.3 µM in experiment [5]; 48.9 ± 12.2 µM in experiment [6]. Further, the dissociation constant (Kd) was 26.3 ± 1.2 µM in experiment [7]; 4.8 µM in experiment [8]; 17.5 ± 2.2 µM in [9] (Seq 6 UGAAGGAAGGU, 0.5 μM SMN-C2, range = 95% CI, read-out: RNA Kd); more than 100 µM in [10]. Also, the “decrease in binding affinity by any single-point mutation of the core sequence” value in experiment [3] (Seq10-17 vs Seq6) is recorded as not below 5 fold. In [9] (binding site 2 vs binding site 1), the “binding affinity (Kd) to RNA Seq6 relative to RNA Seq18, fold stronger” value is listed as 3.4 fold.
